# Columns and labels:
# Test in all cases: scanMAX Kinase assay panel
# Type in all cases: binding
# Conditions in all cases: read-out: % control
# MST1R = MST1R (Homo sapiens (Human), UniProt Q04912)
# Method in brief: (§1)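 scanMAX kinase panel screen. Normalisation: (cpd − pos ctrl)/(neg ctrl − pos ctrl) × 100. Neg ctrl is DMSO (100%); pos ctrl gives 0%.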
# LATS1 = LATS1 (Homo sapiens (Human), UniProt O95835)
# Method in brief: as §1
# DCAMKL1 = DCAMKL1 (Homo sapiens (Human), UniProt O15075)
# Method in brief: as §1
# CSNK1G1 = CSNK1G1 (Homo sapiens (Human), UniProt Q9HCP0)
# Method in brief: as §1
# GAK = GAK (Homo sapiens (Human), UniProt O14976)
# Method in brief: as §1
# LOK = LOK (Homo sapiens (Human), UniProt O94804)
# Method in brief: as §1
# FLT3(D835V) = FLT3(D835V) (Homo sapiens (Human), UniProt P36888, D835V)
# Method in brief: as §1
# MAP4K5 = MAP4K5 (Homo sapiens (Human), UniProt Q9Y4K4)
# Method in brief: as §1
# EPHA1 = EPHA1 (Homo sapiens (Human), UniProt P21709)
# Method in brief: as §1
# PDGFRA = PDGFRA (Homo sapiens (Human), UniProt P16234)
# Method in brief: as §1
# PIK3CD = PIK3CD (Homo sapiens (Human), UniProt O00329)
# Method in brief: as §1
# IRAK4 = IRAK4 (Homo sapiens (Human), UniProt Q9NWZ3)
# Method in brief: as §1
# EGFR(S752-I759del) = EGFR(S752-I759del) (Homo sapiens (Human), UniProt P00533, DEL752-759)
# Method in brief: as §1
# EGFR(L858R) = EGFR(L858R) (Homo sapiens (Human), UniProt P00533, L858R)
# Method in brief: as §1
# LZK = LZK (Homo sapiens (Human), UniProt O43283)
# Method in brief: as §1
# KIT(A829P) = KIT(A829P) (Homo sapiens (Human), UniProt P10721, A829P)
# Method in brief: as §1
# TTK = TTK (Homo sapiens (Human), UniProt P33981)
# Method in brief: as §1
# GRK7 = GRK7 (Homo sapiens (Human), UniProt Q8WTQ7)
# Method in brief: as §1
# PIK3CG = PIK3CG (Homo sapiens (Human), UniProt P48736)
# Method in brief: as §1
# SgK110 = SgK110 (Homo sapiens (Human), UniProt P0C264)
# Method in brief: as §1
# KIT(D816H) = KIT(D816H) (Homo sapiens (Human), UniProt P10721, D816H)
# Method in brief: as §1
# PIK3CA(Q546K) = PIK3CA(Q546K) (Homo sapiens (Human), UniProt P42336, Q546K)
# Method in brief: as §1
# PHKG1 = PHKG1 (Homo sapiens (Human), UniProt Q16816)
# Method in brief: as §1
# INSR = INSR (Homo sapiens (Human), UniProt P06213)
# Method in brief: as §1
# SNARK = SNARK (Homo sapiens (Human), UniProt Q9H093)
# Method in brief: as §1
# EPHA7 = EPHA7 (Homo sapiens (Human), UniProt Q15375)
# Method in brief: as §1
# NEK2 = NEK2 (Homo sapiens (Human), UniProt P51955)
# Method in brief: as §1
# [1] = molecular target: ABL1(Q252H)-phosphorylated (Homo sapiens (Human), UniProt P00519, Q252H)
# Method in brief: as §1
# JNK2 = JNK2 (Homo sapiens (Human), UniProt P45984)
# Method in brief: as §1
# AKT2 = AKT2 (Homo sapiens (Human), UniProt P31751)
# Method in brief: as §1
# ALK(L1196M) = ALK(L1196M) (Homo sapiens (Human), UniProt Q9UM73, L1196M)
# Method in brief: as §1
# [2] = molecular target: TYK2(JH1domain-catalytic) (Homo sapiens (Human), UniProt P29597)
# Method in brief: as §1
# PIK3CA(H1047L) = PIK3CA(H1047L) (Homo sapiens (Human), UniProt P42336, H1047L)
# Method in brief: as §1
# STK16 = STK16 (Homo sapiens (Human), UniProt O75716)
# Method in brief: as §1
# CSF1R-autoinhibited = CSF1R-autoinhibited (Homo sapiens (Human), UniProt P07333)
# Method in brief: as §1
# ROCK1 = ROCK1 (Homo sapiens (Human), UniProt Q13464)
# Method in brief: as §1
# LIMK2 = LIMK2 (Homo sapiens (Human), UniProt P53671)
# Method in brief: as §1
# EPHB1 = EPHB1 (Homo sapiens (Human), UniProt P54762)
# Method in brief: as §1
# Chain of PIK3CA(H1047L) (P42336 whole entry H1047L): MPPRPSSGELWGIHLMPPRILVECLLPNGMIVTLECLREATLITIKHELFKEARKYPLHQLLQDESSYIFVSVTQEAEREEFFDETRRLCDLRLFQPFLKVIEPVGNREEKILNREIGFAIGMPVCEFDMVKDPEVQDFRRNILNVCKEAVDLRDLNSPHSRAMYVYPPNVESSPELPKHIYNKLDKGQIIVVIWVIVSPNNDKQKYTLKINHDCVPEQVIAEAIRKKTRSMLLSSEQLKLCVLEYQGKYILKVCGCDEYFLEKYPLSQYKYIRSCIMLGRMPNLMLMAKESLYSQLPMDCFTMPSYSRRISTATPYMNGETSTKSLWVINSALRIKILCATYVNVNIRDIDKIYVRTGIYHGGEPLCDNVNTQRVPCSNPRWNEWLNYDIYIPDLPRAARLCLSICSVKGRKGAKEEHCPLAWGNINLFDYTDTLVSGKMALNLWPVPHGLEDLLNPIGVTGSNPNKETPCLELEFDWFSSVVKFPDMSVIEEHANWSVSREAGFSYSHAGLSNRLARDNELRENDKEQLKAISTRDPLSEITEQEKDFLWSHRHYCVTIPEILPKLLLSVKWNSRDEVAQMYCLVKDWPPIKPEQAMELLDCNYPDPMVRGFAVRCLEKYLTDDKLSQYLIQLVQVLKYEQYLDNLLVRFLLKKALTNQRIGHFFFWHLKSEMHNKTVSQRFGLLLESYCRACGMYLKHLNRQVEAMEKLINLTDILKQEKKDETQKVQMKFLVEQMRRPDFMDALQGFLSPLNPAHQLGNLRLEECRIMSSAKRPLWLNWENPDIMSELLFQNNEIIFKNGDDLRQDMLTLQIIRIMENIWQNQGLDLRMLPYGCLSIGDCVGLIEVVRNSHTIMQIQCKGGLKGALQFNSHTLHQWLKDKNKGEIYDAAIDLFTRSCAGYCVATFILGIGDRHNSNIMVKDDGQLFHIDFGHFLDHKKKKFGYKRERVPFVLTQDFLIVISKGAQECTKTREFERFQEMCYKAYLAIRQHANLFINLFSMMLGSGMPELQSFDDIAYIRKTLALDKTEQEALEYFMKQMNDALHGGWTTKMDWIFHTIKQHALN
# Chain of EPHB1 (P54762 18-984): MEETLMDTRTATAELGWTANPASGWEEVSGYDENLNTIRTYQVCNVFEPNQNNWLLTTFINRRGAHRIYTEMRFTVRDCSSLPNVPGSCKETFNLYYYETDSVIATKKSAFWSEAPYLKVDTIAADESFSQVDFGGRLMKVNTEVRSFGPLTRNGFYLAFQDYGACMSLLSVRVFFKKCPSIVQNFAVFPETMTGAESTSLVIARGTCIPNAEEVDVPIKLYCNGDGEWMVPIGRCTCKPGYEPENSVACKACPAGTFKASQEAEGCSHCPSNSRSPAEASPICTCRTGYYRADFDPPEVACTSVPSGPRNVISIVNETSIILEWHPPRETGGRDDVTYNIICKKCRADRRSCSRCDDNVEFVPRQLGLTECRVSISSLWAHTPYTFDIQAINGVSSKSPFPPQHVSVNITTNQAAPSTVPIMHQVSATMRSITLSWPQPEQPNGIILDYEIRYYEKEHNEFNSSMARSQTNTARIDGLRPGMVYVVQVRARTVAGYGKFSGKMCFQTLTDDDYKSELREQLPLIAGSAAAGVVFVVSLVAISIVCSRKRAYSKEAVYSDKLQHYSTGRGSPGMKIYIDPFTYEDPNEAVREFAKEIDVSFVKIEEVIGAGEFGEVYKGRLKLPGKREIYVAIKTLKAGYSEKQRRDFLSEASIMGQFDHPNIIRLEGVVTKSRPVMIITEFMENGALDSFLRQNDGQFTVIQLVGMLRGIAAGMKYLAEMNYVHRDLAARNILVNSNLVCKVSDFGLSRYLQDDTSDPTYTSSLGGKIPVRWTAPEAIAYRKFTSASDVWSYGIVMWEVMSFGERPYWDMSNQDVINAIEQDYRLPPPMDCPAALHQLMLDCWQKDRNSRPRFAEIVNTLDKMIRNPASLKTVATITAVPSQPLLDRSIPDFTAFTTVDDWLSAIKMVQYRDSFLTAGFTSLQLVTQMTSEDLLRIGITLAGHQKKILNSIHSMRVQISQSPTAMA
# Chain of EPHA1 (P21709 26-976): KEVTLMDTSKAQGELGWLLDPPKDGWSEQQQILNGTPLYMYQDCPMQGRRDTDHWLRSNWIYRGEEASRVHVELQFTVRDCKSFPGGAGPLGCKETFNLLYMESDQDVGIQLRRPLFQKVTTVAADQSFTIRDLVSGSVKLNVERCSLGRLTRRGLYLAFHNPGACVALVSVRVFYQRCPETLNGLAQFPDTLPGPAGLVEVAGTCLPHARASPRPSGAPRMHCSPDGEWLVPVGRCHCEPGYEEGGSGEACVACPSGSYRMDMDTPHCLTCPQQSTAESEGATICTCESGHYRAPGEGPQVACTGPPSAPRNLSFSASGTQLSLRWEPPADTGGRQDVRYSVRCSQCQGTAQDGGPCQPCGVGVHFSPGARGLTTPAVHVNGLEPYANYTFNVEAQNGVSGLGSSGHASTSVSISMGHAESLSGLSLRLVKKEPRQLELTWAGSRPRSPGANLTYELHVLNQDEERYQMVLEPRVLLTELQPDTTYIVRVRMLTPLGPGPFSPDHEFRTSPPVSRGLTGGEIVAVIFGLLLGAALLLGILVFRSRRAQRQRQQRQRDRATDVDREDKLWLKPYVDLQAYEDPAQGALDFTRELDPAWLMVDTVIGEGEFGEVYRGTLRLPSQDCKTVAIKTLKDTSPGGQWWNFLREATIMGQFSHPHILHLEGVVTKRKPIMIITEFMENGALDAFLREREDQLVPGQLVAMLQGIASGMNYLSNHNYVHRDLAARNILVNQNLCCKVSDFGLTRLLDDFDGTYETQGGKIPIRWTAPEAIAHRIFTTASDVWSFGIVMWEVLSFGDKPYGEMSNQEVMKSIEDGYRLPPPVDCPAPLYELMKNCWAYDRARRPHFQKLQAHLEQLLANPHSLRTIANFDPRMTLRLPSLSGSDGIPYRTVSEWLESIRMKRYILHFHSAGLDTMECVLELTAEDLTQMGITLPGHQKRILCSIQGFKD
# Chain of SgK110 (P0C264 whole entry): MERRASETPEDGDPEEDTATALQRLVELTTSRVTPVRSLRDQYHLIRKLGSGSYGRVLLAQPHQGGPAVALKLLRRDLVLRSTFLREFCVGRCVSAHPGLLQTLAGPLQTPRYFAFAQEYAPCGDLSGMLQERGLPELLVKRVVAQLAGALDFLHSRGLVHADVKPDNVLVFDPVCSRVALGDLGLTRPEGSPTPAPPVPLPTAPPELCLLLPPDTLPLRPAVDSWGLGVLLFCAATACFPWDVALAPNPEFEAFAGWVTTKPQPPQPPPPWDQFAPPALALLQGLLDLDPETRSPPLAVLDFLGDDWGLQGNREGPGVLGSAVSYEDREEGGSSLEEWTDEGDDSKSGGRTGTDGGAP
# Chain of MST1R (Q04912 25-1400): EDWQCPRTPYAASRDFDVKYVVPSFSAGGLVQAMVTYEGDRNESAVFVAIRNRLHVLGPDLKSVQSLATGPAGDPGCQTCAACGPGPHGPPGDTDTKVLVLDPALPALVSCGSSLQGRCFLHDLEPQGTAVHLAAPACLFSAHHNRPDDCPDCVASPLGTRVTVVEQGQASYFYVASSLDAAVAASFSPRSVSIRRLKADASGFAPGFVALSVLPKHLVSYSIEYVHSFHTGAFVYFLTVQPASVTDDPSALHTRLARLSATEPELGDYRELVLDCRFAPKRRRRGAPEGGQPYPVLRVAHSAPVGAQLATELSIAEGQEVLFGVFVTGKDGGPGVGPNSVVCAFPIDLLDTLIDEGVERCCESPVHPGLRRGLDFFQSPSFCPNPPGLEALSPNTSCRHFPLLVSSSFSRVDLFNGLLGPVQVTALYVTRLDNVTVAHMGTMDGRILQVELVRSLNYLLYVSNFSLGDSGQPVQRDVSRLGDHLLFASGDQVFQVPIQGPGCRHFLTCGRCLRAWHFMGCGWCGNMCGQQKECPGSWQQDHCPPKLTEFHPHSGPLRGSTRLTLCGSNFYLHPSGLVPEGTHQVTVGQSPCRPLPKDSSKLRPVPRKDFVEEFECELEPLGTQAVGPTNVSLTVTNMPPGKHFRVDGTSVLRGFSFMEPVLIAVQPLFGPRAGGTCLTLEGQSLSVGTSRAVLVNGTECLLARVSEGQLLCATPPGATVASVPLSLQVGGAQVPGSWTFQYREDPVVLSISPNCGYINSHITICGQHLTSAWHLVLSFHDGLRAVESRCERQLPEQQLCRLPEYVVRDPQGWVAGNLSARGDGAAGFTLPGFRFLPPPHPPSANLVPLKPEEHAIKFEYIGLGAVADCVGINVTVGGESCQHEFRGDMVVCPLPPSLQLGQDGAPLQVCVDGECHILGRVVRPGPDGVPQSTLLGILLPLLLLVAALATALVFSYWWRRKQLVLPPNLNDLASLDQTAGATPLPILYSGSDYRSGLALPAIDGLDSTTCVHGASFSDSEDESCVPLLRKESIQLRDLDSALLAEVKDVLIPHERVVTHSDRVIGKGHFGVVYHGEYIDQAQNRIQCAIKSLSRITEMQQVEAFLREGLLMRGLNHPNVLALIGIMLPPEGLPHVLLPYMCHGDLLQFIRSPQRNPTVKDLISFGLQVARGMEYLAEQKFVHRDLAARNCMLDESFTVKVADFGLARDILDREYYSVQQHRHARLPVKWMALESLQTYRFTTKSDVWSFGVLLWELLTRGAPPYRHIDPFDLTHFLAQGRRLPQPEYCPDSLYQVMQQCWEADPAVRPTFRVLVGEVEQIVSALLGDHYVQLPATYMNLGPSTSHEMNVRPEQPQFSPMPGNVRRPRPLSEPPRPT
# Chain of PIK3CA(Q546K) (P42336 whole entry Q546K): as the sequence (P42336 whole entry H1047L) above, with Q546K, L1047H counted along it
# Chain of STK16 (O75716 whole entry): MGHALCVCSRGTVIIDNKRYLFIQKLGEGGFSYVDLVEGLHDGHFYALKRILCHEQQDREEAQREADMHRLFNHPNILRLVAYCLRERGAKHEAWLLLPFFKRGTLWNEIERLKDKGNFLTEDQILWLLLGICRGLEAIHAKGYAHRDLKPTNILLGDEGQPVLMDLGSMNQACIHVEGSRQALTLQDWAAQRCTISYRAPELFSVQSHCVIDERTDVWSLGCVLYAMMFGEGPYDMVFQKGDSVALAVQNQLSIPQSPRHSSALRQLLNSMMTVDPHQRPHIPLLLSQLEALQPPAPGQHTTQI
smiles,measurement,setting,value
"CCNc1cc(Nc2ccc(C(=O)N3CCC(N4CCOCC4)CC3)cc2OC)nc2[nH]cc(C#N)c12 [Example 18, 4-(ethylamino)-6-((2-methoxy-4-(4-morpholinopiperidine-1-carbonyl)phenyl)amino)-1H-pyrrolo[2,3-b]pyridine-3-carbonitrile]",remaining binding at 1 µM,MST1R,81%
same,remaining binding at 1 µM,LATS1,97%
same,remaining binding at 1 µM,DCAMKL1,85%
same,remaining binding at 1 µM,CSNK1G1,43%
same,remaining binding at 1 µM,GAK,15%
same,remaining binding at 1 µM,LOK,91%
same,remaining binding at 1 µM,FLT3(D835V),74%
same,remaining binding at 1 µM,MAP4K5,99%
same,remaining binding at 1 µM,EPHA1,91%
same,remaining binding at 1 µM,PDGFRA,77%
same,remaining binding at 1 µM,PIK3CD,100%
same,remaining binding at 1 µM,IRAK4,99%
same,remaining binding at 1 µM,EGFR(S752-I759del),99%
same,remaining binding at 1 µM,EGFR(L858R),100%
same,remaining binding at 1 µM,LZK,100%
same,remaining binding at 1 µM,KIT(A829P),99%
same,remaining binding at 1 µM,TTK,8.9%
same,remaining binding at 1 µM,GRK7,96%
same,remaining binding at 1 µM,PIK3CG,100%
same,remaining binding at 1 µM,SgK110,100%
same,remaining binding at 1 µM,KIT(D816H),80%
same,remaining binding at 1 µM,PIK3CA(Q546K),100%
same,remaining binding at 1 µM,PHKG1,16%
same,remaining binding at 1 µM,INSR,36%
same,remaining binding at 1 µM,SNARK,57%
same,remaining binding at 1 µM,EPHA7,94%
same,remaining binding at 1 µM,NEK2,100%
same,remaining binding at 1 µM,[1],100%
same,remaining binding at 1 µM,JNK2,0.1%
same,remaining binding at 1 µM,AKT2,87%
same,remaining binding at 1 µM,ALK(L1196M),13%
same,remaining binding at 1 µM,[2],59%
same,remaining binding at 1 µM,PIK3CA(H1047L),85%
same,remaining binding at 1 µM,STK16,60%
same,remaining binding at 1 µM,CSF1R-autoinhibited,51%
same,remaining binding at 1 µM,ROCK1,9.1%
same,remaining binding at 1 µM,LIMK2,90%
same,remaining binding at 1 µM,EPHB1,95%
"CCNc1cc(Nc2ccc(C(=O)N3CCC(N4CCOCC4)CC3)cc2OC)nc2[nH]cc(C(F)(F)F)c12 [Example 57, (4-((4-(ethylamino)-3-(trifluoromethyl)-1H-pyrrolo[2,3-b]pyridin-6-yl)amino)-3-methoxyphenyl) (4-morpholinopiperidin-1-yl)methanone]",remaining binding at 1 µM,MST1R,70%
same,remaining binding at 1 µM,LATS1,94%
same,remaining binding at 1 µM,DCAMKL1,86%
same,remaining binding at 1 µM,CSNK1G1,88%
same,remaining binding at 1 µM,GAK,41%
same,remaining binding at 1 µM,LOK,84%
same,remaining binding at 1 µM,FLT3(D835V),92%
same,remaining binding at 1 µM,MAP4K5,100%
same,remaining binding at 1 µM,EPHA1,78%
same,remaining binding at 1 µM,PDGFRA,100%
same,remaining binding at 1 µM,PIK3CD,100%
same,remaining binding at 1 µM,IRAK4,100%
same,remaining binding at 1 µM,EGFR(S752-I759del),75%
same,remaining binding at 1 µM,EGFR(L858R),100%
same,remaining binding at 1 µM,LZK,100%
same,remaining binding at 1 µM,KIT(A829P),100%
same,remaining binding at 1 µM,TTK,67%
same,remaining binding at 1 µM,GRK7,84%
same,remaining binding at 1 µM,PIK3CG,87%
same,remaining binding at 1 µM,SgK110,96%
same,remaining binding at 1 µM,KIT(D816H),96%
same,remaining binding at 1 µM,PIK3CA(Q546K),100%
same,remaining binding at 1 µM,PHKG1,26%
same,remaining binding at 1 µM,INSR,48%
same,remaining binding at 1 µM,SNARK,100%
same,remaining binding at 1 µM,EPHA7,100%
same,remaining binding at 1 µM,NEK2,94%
same,remaining binding at 1 µM,[1],100%
same,remaining binding at 1 µM,JNK2,52%
same,remaining binding at 1 µM,AKT2,90%
same,remaining binding at 1 µM,ALK(L1196M),14%
same,remaining binding at 1 µM,[2],100%
same,remaining binding at 1 µM,PIK3CA(H1047L),100%
same,remaining binding at 1 µM,STK16,64%
same,remaining binding at 1 µM,CSF1R-autoinhibited,83%
same,remaining binding at 1 µM,ROCK1,100%
same,remaining binding at 1 µM,LIMK2,99%
same,remaining binding at 1 µM,EPHB1,94%
